Results on 1 compound are retold here after ChEMBL document CHEMBL3991601, “The target landscape of clinical kinase drugs” (Science, 2017).

The target of assay [1] is T1, Ras-related protein Rab-27A (Homo sapiens, UniProt P51159).
T1 sequence (P51159 whole entry): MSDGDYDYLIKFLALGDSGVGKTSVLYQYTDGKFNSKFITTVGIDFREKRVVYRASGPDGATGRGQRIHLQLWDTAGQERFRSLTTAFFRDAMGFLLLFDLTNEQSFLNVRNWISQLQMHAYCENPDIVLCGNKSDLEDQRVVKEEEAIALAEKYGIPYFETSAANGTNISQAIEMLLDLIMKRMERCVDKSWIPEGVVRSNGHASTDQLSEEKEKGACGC

For assay [2], the target named is T2, Mitogen-activated protein kinase kinase kinase 2 (Homo sapiens, UniProt Q9Y2U5).
T2 sequence (Q9Y2U5 whole entry): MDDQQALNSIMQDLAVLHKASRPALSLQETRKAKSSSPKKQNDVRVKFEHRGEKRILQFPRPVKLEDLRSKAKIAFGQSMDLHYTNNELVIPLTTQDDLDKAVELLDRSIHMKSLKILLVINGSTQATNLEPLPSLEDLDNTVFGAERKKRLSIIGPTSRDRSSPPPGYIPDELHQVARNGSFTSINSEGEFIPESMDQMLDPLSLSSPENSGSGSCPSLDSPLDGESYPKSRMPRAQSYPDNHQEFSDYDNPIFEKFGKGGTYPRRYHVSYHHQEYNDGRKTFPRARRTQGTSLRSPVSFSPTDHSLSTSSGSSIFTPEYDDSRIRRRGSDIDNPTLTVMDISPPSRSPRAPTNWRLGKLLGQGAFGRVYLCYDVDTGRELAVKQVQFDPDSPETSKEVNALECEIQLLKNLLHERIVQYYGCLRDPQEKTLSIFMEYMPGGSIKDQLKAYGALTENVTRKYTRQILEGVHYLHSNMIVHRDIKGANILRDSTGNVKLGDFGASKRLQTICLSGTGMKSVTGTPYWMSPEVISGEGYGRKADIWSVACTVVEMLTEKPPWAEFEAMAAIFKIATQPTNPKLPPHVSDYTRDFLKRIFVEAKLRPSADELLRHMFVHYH

The target in assay [3] is Protein-tyrosine kinase 6 (Homo sapiens, UniProt Q13882).
In assay [4] the target is Activated CDC42 kinase 1 (Homo sapiens, UniProt Q07912).
The target in assay [5] is Protein-tyrosine kinase 2-beta (Homo sapiens, UniProt Q14289).
Assay [6] deals with Proto-oncogene tyrosine-protein kinase receptor Ret (Homo sapiens, UniProt P07949).
In assay [7] the target is Cyclin-dependent kinase 6 (Homo sapiens, UniProt Q00534).
The target of assay [8] is T3, Serine/threonine-protein kinase Nek3 (Homo sapiens, UniProt P51956).
T3 sequence (P51956 whole entry): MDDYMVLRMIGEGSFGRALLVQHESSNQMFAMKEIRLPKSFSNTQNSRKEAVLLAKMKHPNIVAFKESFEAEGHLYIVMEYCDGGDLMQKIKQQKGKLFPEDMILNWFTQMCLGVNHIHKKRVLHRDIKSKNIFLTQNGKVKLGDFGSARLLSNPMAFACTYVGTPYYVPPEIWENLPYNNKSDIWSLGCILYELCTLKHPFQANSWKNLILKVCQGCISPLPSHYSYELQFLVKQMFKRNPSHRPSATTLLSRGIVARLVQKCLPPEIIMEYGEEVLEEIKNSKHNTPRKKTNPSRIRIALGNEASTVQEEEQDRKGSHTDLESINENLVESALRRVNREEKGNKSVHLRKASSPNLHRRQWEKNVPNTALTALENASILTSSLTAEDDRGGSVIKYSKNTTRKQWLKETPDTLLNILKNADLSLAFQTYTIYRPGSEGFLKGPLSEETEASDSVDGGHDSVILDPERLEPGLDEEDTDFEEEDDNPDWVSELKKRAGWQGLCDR

The target of assay [9] is T4, Serine/threonine-protein kinase STK11 (Homo sapiens, UniProt Q15831).
T4 sequence (Q15831 whole entry): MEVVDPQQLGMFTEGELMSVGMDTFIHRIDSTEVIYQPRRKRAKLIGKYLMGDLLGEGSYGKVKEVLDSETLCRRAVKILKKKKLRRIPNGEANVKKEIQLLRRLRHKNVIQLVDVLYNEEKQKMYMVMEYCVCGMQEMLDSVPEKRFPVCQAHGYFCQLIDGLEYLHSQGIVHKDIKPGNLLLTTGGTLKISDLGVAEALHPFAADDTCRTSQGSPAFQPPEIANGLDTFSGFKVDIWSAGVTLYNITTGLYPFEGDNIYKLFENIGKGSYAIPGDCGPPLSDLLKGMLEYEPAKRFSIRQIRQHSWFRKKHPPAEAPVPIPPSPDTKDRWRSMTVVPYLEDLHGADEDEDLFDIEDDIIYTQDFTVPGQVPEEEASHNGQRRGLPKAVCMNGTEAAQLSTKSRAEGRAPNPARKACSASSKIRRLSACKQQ

The source made the active and inactive calls. Rule as the data show it, for most assays here: actives have a measured Kd and inactives only a lower limit. Some results are limits rather than exact numbers.
Also: in the data inactive means no Kd found up to 30 µM.

Sequence of Protein-tyrosine kinase 2-beta (Q14289 whole entry): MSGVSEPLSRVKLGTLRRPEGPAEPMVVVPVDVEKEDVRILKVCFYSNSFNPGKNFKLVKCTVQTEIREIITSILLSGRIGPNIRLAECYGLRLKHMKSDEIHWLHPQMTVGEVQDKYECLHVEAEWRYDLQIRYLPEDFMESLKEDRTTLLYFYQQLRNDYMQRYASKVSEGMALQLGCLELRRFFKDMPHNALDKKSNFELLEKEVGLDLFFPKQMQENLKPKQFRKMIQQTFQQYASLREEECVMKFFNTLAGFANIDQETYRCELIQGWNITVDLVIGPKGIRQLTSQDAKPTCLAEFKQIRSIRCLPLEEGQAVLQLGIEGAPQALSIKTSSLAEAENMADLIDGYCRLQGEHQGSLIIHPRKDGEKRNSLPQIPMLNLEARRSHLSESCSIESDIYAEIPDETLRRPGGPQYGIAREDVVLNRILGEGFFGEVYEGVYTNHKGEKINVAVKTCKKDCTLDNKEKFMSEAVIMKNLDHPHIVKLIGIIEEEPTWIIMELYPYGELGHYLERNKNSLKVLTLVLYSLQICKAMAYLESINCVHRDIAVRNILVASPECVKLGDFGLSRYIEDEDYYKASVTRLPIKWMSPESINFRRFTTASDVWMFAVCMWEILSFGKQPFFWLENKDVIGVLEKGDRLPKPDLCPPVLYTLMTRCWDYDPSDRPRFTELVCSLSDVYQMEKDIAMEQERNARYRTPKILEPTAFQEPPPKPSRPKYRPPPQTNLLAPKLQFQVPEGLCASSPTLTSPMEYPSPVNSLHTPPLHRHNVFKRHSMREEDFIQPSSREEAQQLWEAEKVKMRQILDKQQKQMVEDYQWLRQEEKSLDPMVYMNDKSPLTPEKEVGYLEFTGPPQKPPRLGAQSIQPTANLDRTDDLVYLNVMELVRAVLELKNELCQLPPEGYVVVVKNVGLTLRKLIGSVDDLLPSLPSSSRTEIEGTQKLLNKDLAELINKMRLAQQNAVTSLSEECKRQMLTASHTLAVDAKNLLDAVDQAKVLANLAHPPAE
Sequence of Activated CDC42 kinase 1 (Q07912 whole entry): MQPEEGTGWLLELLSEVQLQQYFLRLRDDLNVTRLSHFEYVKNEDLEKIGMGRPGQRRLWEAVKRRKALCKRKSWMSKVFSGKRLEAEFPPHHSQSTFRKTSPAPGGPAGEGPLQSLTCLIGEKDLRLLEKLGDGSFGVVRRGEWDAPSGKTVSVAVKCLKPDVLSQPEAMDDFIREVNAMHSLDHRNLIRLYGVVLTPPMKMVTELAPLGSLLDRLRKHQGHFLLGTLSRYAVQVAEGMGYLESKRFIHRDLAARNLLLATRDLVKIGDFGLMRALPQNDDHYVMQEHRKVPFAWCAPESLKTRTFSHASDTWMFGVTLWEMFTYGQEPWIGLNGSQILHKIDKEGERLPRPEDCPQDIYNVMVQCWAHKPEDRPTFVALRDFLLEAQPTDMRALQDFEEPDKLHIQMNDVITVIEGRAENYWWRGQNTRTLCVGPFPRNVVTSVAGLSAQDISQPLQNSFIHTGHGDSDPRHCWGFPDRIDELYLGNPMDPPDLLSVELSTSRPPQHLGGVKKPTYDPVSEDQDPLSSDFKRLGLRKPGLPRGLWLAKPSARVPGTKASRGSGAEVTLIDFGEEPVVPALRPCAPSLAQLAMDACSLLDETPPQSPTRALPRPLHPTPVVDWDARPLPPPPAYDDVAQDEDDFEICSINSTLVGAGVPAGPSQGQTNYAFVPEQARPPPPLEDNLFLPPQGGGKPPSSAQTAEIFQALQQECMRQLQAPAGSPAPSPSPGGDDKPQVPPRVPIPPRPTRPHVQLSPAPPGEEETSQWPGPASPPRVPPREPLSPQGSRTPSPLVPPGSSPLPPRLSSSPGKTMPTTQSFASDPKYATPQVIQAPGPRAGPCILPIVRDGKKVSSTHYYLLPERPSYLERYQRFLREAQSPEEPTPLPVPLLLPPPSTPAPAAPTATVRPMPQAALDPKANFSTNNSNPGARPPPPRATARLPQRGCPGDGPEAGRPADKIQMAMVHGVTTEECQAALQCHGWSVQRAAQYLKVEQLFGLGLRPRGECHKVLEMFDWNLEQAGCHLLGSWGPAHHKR
Sequence of Proto-oncogene tyrosine-protein kinase receptor Ret (P07949 whole entry): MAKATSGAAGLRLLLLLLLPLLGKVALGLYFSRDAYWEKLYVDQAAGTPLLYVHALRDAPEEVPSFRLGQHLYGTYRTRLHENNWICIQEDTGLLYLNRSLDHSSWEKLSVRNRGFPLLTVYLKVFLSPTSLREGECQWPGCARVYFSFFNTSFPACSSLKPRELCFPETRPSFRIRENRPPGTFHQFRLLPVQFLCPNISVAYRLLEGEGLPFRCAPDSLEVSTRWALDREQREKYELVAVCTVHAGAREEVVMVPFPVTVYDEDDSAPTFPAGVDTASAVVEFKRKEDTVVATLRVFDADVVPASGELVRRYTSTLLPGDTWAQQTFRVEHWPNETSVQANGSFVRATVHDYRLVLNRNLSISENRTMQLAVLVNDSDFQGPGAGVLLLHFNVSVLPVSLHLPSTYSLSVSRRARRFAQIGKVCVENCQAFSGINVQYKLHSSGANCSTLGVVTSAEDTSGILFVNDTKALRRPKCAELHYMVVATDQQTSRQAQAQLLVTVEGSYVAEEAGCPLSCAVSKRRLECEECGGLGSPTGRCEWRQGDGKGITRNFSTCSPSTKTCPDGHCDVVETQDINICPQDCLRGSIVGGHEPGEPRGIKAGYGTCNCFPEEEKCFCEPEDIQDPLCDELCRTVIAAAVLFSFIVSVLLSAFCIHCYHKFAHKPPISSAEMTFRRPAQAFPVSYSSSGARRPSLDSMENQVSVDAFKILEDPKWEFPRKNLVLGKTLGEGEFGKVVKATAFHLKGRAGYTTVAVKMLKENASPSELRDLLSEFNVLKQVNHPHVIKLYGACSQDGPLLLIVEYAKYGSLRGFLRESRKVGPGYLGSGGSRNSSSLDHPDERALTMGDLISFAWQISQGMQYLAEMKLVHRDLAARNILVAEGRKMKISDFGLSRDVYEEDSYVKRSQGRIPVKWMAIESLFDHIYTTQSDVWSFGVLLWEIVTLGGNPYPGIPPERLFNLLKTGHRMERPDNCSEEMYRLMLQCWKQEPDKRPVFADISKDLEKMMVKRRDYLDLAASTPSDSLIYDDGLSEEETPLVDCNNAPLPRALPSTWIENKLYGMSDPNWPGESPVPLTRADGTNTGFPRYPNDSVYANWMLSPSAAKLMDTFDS
Sequence of Cyclin-dependent kinase 6 (Q00534 whole entry): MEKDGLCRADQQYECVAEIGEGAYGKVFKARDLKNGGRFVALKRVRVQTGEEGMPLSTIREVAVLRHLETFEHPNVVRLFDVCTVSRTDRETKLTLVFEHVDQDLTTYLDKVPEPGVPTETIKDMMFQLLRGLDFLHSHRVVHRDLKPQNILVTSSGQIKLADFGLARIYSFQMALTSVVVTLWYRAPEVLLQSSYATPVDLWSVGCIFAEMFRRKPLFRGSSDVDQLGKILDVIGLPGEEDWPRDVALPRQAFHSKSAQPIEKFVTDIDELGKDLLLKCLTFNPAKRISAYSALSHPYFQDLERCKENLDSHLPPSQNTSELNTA
Sequence of Protein-tyrosine kinase 6 (Q13882 whole entry): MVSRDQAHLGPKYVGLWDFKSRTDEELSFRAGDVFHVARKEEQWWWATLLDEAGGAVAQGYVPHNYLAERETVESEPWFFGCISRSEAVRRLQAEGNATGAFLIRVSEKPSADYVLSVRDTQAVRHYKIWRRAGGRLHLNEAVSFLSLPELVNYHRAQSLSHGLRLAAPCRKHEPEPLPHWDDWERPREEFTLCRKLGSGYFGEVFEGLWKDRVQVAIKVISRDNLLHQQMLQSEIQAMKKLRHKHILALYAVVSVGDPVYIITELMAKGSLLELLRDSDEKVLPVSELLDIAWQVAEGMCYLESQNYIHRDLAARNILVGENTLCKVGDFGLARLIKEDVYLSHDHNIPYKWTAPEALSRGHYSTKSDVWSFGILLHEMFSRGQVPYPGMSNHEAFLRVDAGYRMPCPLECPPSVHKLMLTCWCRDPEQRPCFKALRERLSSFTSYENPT

What is called Kd is a measure of binding affinity in units of concentration. With `CN1C/C=C/CCOc2cccc(c2)-c2ccnc(n2)Nc2cccc(c2)C1` [ZOTIRACICLIB], the Kd is > 30 µM (inactive) in assay [1]; > 30 µM (inactive) in assay [2]; > 30 µM (inactive) in assay [3]; > 30 µM (inactive) in [4]; > 30 µM (inactive) in assay [5]; 21.9 µM in assay [6]. The equilibrium dissociation constant (Kd) in assay [7] is 1.6 µM; in assay [8], > 30 µM (inactive); in assay [9], > 30 µM (inactive).
